Where a SMILES comes first, the peptide text is derived from it.
Target: T1, NS2/3 protease (Hepatitis C virus genotype 1b, UniProt P26663)
T1 construct: In a well defined assay system using purified NS2/3 (904-1206) and an optimized cleavage buffer; made in house; host or cells: E. coli BL21(DE3)pLysS
Experiment: biochemical
Set-up: species or system Hepatitis C virus (HCV) genotype 1b
Conditions: for trans-cleavage of the peptide by NS2/3 protease: identical assay conditions, data not shown
Procedure: NS2/3 protease cleavage-site derived peptides were evaluated as potentially competing substrates (Table 1). NS2/3 protease cleavage-site derived peptides and NS4A-derived peptides were synthesized in-house using the standard solid-phase methodology or were made by Multiple Peptide Systems (San Diego, Calif.). Various concentrations of peptides were pre-incubated with 0.54 μM NS2/3 protease for 30 min at 23° C. in 50 mM Hepes, pH 7.0, and 50% (w/v) glycerol. The autocleavage reaction was initiated by addition of n-dodecyl-β-D-maltoside to a final concentration of 0.5%. The final DMSO content never exceeded 5% (v/v). The resulting mixture was then incubated for 3 h at 23° C. The reaction was stopped and quantified.

SMILES	IC50 [µM]	trans-cleavage of the peptide by NS2/3 protease
CC[C@H](C)[C@H](NC(=O)[C@@H]1CCCN1C(=O)[C@H](C)NC(=O)[C@H](CC(C)C)NC(=O)[C@H](CC(C)C)NC(=O)[C@H](CCCNC(=N)N)NC(=O)[C@H](Cc1c[nH]c2ccccc12)NC(=O)CNC(=O)[C@H](CCC(N)=O)NC(=O)CNC(=O)[C@H](CCC(=O)O)NC(=O)[C@H](Cc1ccccc1)NC(=O)[C@@H](N)CO)C(=O)N[C@H](C(=O)N[C@@H](C)C(=O)N[C@@H](Cc1ccc(O)cc1)C(=O)N[C@@H](CO)C(=O)N[C@@H](CCC(N)=O)C(=O)N[C@@H](CCC(N)=O)C(=O)N[C@H](C(=O)O)[C@@H](C)O)[C@@H](C)O [Peptide 1, SFEGQGWRLL-APITAYSQQT]	270	no trans-cleavage
CC[C@H](C)[C@H](NC(=O)[C@@H]1CCCN1C(=O)[C@H](C)NC(=O)[C@H](CC(C)C)NC(=O)[C@H](CC(C)C)NC(=O)[C@H](CCCNC(=N)N)NC(=O)[C@H](Cc1c[nH]c2ccccc12)NC(=O)CNC(=O)[C@@H](N)CCCCN)C(=O)N[C@H](C(=O)N[C@@H](C)C(=O)N[C@@H](Cc1ccc(O)cc1)C(=O)O)[C@@H](C)O [Peptide 4, KGWRLL-APITAY]	630	no trans-cleavage
CC(C)C[C@H](NC(=O)[C@H](CC(C)C)NC(=O)[C@H](CCCNC(=N)N)NC(=O)[C@H](Cc1c[nH]c2ccccc12)NC(=O)CNC(=O)[C@H](CCC(N)=O)NC(=O)CNC(=O)[C@H](CCC(=O)O)NC(=O)[C@H](Cc1ccccc1)NC(=O)[C@@H](N)CO)C(=O)O [Peptide 2, SFEGQGWRLL] (H-SFEGQGWRLL-OH; N-terminus and C-terminus assumed)	90	
CC[C@H](C)[C@H](NC(=O)[C@@H]1CCCN1C(=O)[C@H](C)N)C(=O)N[C@H](C(=O)N[C@@H](C)C(=O)N[C@@H](Cc1ccc(O)cc1)C(=O)N[C@@H](CO)C(=O)N[C@@H](CCC(N)=O)C(=O)N[C@@H](CCC(N)=O)C(=O)N[C@H](C(=O)O)[C@@H](C)O)[C@@H](C)O [Peptide 3, APITAYSQQT] (H-APITAYSQQT-OH)	> 1000	
CC[C@H](C)[C@H](NC(=O)[C@@H]1CCCN1C(=O)[C@H](C)N)C(=O)N[C@H](C(=O)N[C@@H](C)C(=O)N[C@@H](Cc1ccc(O)cc1)C(=O)O)[C@@H](C)O [Peptide 5, APITAY] (H-APITAY-OH)	1000	

From US7264811B2, “Purified active HCV NS2/3 protease” (priority 2000, dated 2007)
